Assay results reported in patent US11780849B2, “Imino sulfanone inhibitors of ENPP1” (Volastra Therapeutics, Inc., priority 2020, dated 2023).
Read-outs that look alike come from different tables or passages of the source.

Columns and labels:
[1] = biological target: ENPP1 on MDA-MB-231 cells (Homo sapiens (Human), UniProt P22413); assay: Assay 3: inhibition of ENPP1 hydrolysis of AMP p-nitrophenyl ester on MDA-MB-231 cells
Experimental: Hydrolysis of the p-nitrophenyl ester of AMP (pNP-AMP), an isostere of ATP, is selectively catalyzed by ENPP1 in the supernatant of MDA-MB-231 cell cultures. Inhibition of the hydrolysis of pNP-AMP by MDA-MB-231 at pH 7.4 and 37° C., is a good model of physiologically relevant activity of membrane-bound ENPP1 at disease-relevant expression levels.
MDA-MB-231 cells were harvested using TypLE Express Enzyme digestion and suspended in 100 μL of Leibovitz's L-15 Medium, 20% FBS, seeding the cells in a 96-well assay plate with 4.5×10^4 cells/well. Cells were incubated at 37° C. with 1% CO2 for 24 h. In a separate dilution plate, 2× of top dose of compound was prepared in phenol-red free 1640 medium without FBS and then 1:3 serial diluted in the same medium. The cell culture medium of L15 medium was aspirated carefully and cells were washed with PBS once, and 50 μL per well of test compound or DMSO blank were added to the assay plate. Substrate mix (50 μL; 0.5 mM pNP-AMP in phenol-red free 1640 media without FBS) was added for a pNP-AMP final concentration of 0.25 mM. The system was incubated at 37° C. for 3 h.

ENPP-1 ECD [2] = biological target: T1, ENPP-1 ECD (Homo sapiens (Human), UniProt P22413); assay: Assay 2: inhibition of ENPP1 hydrolysis of 2′,3′-cGAMP (AMP-Glo, […] enzyme)
Experimental: Assay 2: Compared to the conditions in Assay 1, this assay has a larger dynamic range and ensures the system is under steady-state conditions by reducing the enzyme concentration in the assay.
Test compounds were plated in a 3× dilution scheme in a 384 well plate. […] AMP Detection solution (10 μL) was added to each well, the plate centrifuged and incubated for 60 min.

ENPP-1 ECD [3] = biological target: T1, ENPP-1 ECD; assay: Assay 1: inhibition of ENPP1 hydrolysis of 2′,3′-cGAMP (AMP-Glo, […] enzyme)
Experimental: Assay 1: Test compounds were plated in a 3× dilution scheme in a 384 well plate. […] AMP Detection solution (100 μL) was added to each well, the plate centrifuged and incubated for 60 min.

[4] = read-out: Assay 3 (KI, app), apparent KI from IC50 via Cheng/Prusoff, pNP-AMP […], MDA-MB-231 cells, pH 7.4, 37° C., 3 h, unit inferred
[5] = read-out: Assay 2 (KI), ENPP1 hydrolysis of 2′,3′-cGAMP, AMP-Glo, […] ENPP-1, 24 μM cGAMP
[6] = read-out: Assay 2 (KI), inhibition of ENPP1 hydrolysis of 2′,3′-cGAMP, no unit in Table 18 (Table 17 legend for this assay uses nM)
[7] = Assay 1 (IC50), ENPP1 hydrolysis of 2′,3′-cGAMP, AMP-Glo
[8] = Assay 1 (IC50), inhibition of ENPP1 hydrolysis of 2′,3′-cGAMP, no unit in Table 18 (Table 17 legend for this assay uses nM)
[9] = Assay 2 (KI), ENPP1 hydrolysis of 2′,3′-cGAMP, AMP-Glo, […] ENPP-1, 24 μM cGAMP
[10] = Assay 2 (KI), inhibition of ENPP1 hydrolysis of 2′,3′-cGAMP, no unit in Table 18 (Table 17 legend for this assay uses nM)
[11] = read-out: Assay 1 (IC50), ENPP1 hydrolysis of 2′,3′-cGAMP, AMP-Glo
[12] = read-out: Assay 1 (IC50), inhibition of ENPP1 hydrolysis of 2′,3′-cGAMP, no unit in Table 18 (Table 17 legend for this assay uses nM)

ENPP1 on MDA-MB-231 cells, sequence (P22413 whole entry, the tested form may be a part): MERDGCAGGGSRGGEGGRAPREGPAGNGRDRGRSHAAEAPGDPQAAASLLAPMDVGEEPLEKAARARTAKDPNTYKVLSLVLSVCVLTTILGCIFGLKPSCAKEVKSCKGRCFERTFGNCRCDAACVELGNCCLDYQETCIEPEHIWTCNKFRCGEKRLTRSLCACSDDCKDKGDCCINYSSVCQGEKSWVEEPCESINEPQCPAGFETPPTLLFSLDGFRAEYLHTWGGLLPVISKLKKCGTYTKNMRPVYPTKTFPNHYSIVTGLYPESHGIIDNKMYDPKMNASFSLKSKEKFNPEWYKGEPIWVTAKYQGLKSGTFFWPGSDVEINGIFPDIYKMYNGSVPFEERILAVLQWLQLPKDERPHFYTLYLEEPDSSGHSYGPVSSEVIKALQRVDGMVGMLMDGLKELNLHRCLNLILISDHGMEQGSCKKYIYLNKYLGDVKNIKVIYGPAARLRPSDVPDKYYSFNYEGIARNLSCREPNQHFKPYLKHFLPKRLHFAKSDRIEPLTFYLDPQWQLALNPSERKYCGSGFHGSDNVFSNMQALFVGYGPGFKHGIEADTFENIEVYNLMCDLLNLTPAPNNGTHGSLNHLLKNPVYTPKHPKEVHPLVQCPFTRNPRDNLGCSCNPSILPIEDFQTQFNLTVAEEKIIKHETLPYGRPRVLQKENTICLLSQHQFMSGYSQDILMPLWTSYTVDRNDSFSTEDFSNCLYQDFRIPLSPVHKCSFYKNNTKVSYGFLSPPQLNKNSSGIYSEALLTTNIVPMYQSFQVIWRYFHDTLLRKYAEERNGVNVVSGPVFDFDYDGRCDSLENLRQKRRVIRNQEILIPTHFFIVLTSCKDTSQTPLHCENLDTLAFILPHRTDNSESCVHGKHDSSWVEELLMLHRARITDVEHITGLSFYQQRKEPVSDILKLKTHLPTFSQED
T1 sequence (P22413 98-925): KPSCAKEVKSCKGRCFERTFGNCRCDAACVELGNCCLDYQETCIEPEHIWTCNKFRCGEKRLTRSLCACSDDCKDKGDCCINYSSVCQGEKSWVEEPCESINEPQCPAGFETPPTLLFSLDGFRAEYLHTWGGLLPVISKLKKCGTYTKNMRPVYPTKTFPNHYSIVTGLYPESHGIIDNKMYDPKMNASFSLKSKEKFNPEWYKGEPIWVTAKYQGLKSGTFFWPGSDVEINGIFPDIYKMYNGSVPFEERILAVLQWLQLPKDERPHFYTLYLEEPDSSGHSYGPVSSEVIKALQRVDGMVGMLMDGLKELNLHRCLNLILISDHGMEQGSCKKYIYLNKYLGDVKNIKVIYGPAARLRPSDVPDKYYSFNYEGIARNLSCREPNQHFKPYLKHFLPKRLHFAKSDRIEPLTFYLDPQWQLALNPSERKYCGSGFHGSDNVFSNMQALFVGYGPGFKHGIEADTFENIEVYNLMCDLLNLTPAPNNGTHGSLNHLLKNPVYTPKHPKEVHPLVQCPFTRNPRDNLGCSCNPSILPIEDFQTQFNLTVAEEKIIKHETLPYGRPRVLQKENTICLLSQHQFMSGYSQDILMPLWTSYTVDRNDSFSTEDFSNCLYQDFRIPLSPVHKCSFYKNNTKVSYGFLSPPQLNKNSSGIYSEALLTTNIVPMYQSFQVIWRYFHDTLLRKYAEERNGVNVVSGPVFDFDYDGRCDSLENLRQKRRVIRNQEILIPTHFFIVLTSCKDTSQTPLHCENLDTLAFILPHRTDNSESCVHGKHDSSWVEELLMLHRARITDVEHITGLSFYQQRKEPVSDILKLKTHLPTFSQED

Ki [1, 4] | Ki (ENPP-1 ECD [2]; [5]) | Ki (ENPP-1 ECD [2]; [6]) | IC50 (ENPP-1 ECD [3]; [7]) | IC50 (ENPP-1 ECD [3]; [8]) | Ki (ENPP-1 ECD [2]; [9]) | Ki (ENPP-1 ECD [2]; [10]) | IC50 (ENPP-1 ECD [3]; [11]) | IC50 (ENPP-1 ECD [3]; [12]) | Ki [1] | Structure (SMILES)
21 nM | < 3 nM | 0.28 nM | – | – | – | – | – | – | – | COc1cc2ncnc(-c3ccc4c(c3)CN([S@](C)(=N)=O)CC4)c2cc1OC [Compound 37b]
– | 3 to 300 nM | 98 nM | – | – | – | – | > 1000 nM | – | – | COc1ccc2c(OCc3ccc([S@](C)(=N)=O)cc3)ccnc2c1 [Compound 75b]
– | 3 to 300 nM | 13 nM | – | – | – | – | 10 to 1000 nM | 180 nM | – | COc1ccc2c(Oc3ccc([S@](C)(=N)=O)cc3)ccnc2c1 [Compound 80b]
46 nM | < 3 nM | 0.78 nM | – | – | – | – | – | – | – | COc1cc2ncnc(N3CCC(CN[S@@](C)(=N)=O)CC3)c2cc1OC [Compound 94a]
– | > 300 nM | 450 nM | – | – | – | – | > 1000 nM | 1600 nM | – | CC[S@@](=N)(=O)c1ccc(Oc2ccnc3cc(OC)ccc23)cc1 [Compound 103a]
– | 3 to 300 nM | > 25 nM | – | – | – | – | 10 to 1000 nM | 77 nM | – | COc1cc2nccc(Oc3ccc([S@@](C)(=N)=O)cc3)c2cc1F [Compound 114b]
– | 3 to 300 nM | 4.8 nM | – | – | – | – | 10 to 1000 nM | 37 nM | – | COc1cc2nccc(Oc3ccc([S@](=N)(=O)C4CC4)cc3)c2cc1F [Compound 120b]
– | 3 to 300 nM | 49 nM | – | – | – | – | > 1000 nM | > 100 nM | – | COc1ccc2c(OCc3cccc([S@](C)(=N)=O)c3)ccnc2c1 [Compound 133b]
28 nM | < 3 nM | 0.26 nM | – | – | – | – | – | – | – | COc1cc2nccc(N3CCC(CC[S@@](C)(=N)=O)CC3)c2cc1Cl [Compound 141a]

The next lines start with the molecule.

Structure (SMILES) | Ki [1, 4] | Ki (ENPP-1 ECD [2]; [5]) | Ki (ENPP-1 ECD [2]; [6]) | IC50 (ENPP-1 ECD [3]; [7]) | IC50 (ENPP-1 ECD [3]; [8]) | Ki (ENPP-1 ECD [2]; [9]) | Ki (ENPP-1 ECD [2]; [10]) | IC50 (ENPP-1 ECD [3]; [11]) | IC50 (ENPP-1 ECD [3]; [12]) | Ki [1]
COc1ccc2c(NCc3ccc(S(C)(=N)=O)cc3)ccnc2c1 (centres unmarked) [Compound 74, imino(4-(((7-methoxyquinolin-4-yl)amino)methyl)phenyl)(methyl)-λ^6-sulfanone] | – | – | – | 10 to 1000 nM | 11 nM | < 3 nM | 1.7 nM | – | – | –
COc1ccc2c(Oc3ccc(CS(C)(=N)=O)cc3)ccnc2c1 (centres unmarked) [Compound 79, imino(4-((7-methoxyquinolin-4-yl)oxy)benzyl)(methyl)-λ^6-sulfanone] | – | – | – | 10 to 1000 nM | 740 nM | 3 to 300 nM | 220 nM | – | – | –
COc1cccc2c(Oc3ccc(S(C)(=N)=O)cc3)ncnc12 (centres unmarked) [Compound 84, imino(4-((8-methoxyquinazolin-4-yl)oxy)phenyl)(methyl)-λ^6-sulfanone] | – | – | – | – | 1300 nM | 3 to 300 nM | 210 nM | > 1000 nM | – | –
COc1ccc2c(-c3ccc(CCS(C)(=N)=O)cc3)ccnc2c1 (centres unmarked) [Compound 98, imino(4-(7-methoxyquinolin-4-yl)phenethyl)(methyl)-λ^6-sulfanone] | – | – | – | 10 to 1000 nM | 140 nM | 3 to 300 nM | 25 nM | – | – | –
COc1cc2nccc(Oc3ccc(S(C)(=N)=O)c(F)c3)c2cc1OC (centres unmarked) [Compound 115, {4-[(6,7-dimethoxyquinolin-4-yl)oxy]-2-fluorophenyl}(imino)methyl-λ^6-sulfanone] | – | – | – | 10 to 1000 nM | 85 nM | 3 to 300 nM | 13 nM | – | – | –
COc1cc2nccc(Oc3ccc(S(C)(=N)=O)cc3F)c2cc1OC (centres unmarked) [Compound 116, {4-[(6,7-dimethoxyquinolin-4-yl)oxy]-3-fluorophenyl}(imino)methyl-λ^6-sulfanone] | – | – | – | 10 to 1000 nM | 220 nM | 3 to 300 nM | 25 nM | – | – | –
COc1ccc2c(Oc3cccc(S(C)(=N)=O)c3)ccnc2c1 (centres unmarked) [Compound 117, imino({3-[(7-methoxyquinolin-4-yl)oxy]phenyl})methyl-λ^6-sulfanone] | – | – | – | 10 to 1000 nM | 180 nM | 3 to 300 nM | 94 nM | – | – | –
COc1cccc2c(Oc3ccc(S(C)(=N)=O)cc3)ccnc12 (centres unmarked) [Compound 118, imino({4-[(8-methoxyquinolin-4-yl)oxy]phenyl})methyl-λ^6-sulfanone] | – | – | – | 10 to 1000 nM | 160 nM | 3 to 300 nM | 36 nM | – | – | –
COc1ccc2c(Oc3ccc(S(C)(=N)=O)cc3)cnnc2c1 (centres unmarked) [Compound 119, imino({4-[(7-methoxycinnolin-4-yl)oxy]phenyl})methyl-λ^6-sulfanone] | – | – | – | 10 to 1000 nM | 66 nM | 3 to 300 nM | 17 nM | – | – | –
COc1ccc2c(Oc3ccc(S(C)(=N)=O)cc3)c(C#N)cnc2c1 (centres unmarked) [Compound 121, 4-{4-[imino(methyl)oxo-λ^6-sulfanyl]phenoxy}-7-methoxyquinoline-3-carbonitrile] | – | – | – | – | – | 3 to 300 nM | 4.2 nM | – | – | 250 nM
COc1ccc2c(Oc3ccc(S(=N)(=O)CC4CC4)cc3)ccnc2c1 (centres unmarked) [Compound 123, (cyclopropylmethyl)(imino){4-[(7-methoxyquinolin-4-yl)oxy]phenyl}-λ^6-sulfanone] | – | – | – | – | – | < 3 nM | 1.5 nM | – | – | 60 nM
COc1ccc2c(Oc3ccc(S(C)(=N)=O)cc3)cc(C)nc2c1 (centres unmarked) [Compound 124, imino({4-[(7-methoxy-2-methylquinolin-4-yl)oxy]phenyl})methyl-λ^6-sulfanone] | – | – | – | – | – | < 3 nM | 0.73 nM | – | – | 30 nM
CS(=N)(=O)c1ccc(Oc2ccnc3ccccc23)cc1 (centres unmarked) [Compound 125, imino(methyl)[4-(quinolin-4-yloxy)phenyl]-λ^6-sulfanone] | – | – | – | 10 to 1000 nM | 340 nM | – | 110 nM | – | – | –
COc1cc2nccc(Oc3ccc(S(C)(=N)=O)cc3)c2cc1Cl (centres unmarked) [Compound 126, {4-[(6-chloro-7-methoxyquinolin-4-yl)oxy]phenyl}(imino)methyl-λ^6-sulfanone] | – | – | – | 10 to 1000 nM | 39 nM | 3 to 300 nM | 11 nM | – | – | –
COc1cc2nccc(Oc3ccc(S(C)(=N)=O)nc3)c2cc1OC (centres unmarked) [Compound 129, {5-[(6,7-dimethoxyquinolin-4-yl)oxy]pyridin-2-yl}(imino)methyl-λ^6-sulfanone] | – | – | – | 10 to 1000 nM | 260 nM | 3 to 300 nM | 39 nM | – | – | –
COc1ccc2c(Oc3ccc(S(=N)(=O)CC(C)(C)O)cc3)ccnc2c1 (centres unmarked) [Compound 132, (2-hydroxy-2-methylpropyl)(imino){4-[(7-methoxyquinolin-4-yl)oxy]phenyl}-λ^6-sulfanone] | – | – | – | – | – | < 3 nM | 1.1 nM | – | – | 45 nM
COc1ccc2c(OCc3ccc(S(C)(=N)=O)cc3Br)ccnc2c1 (centres unmarked) [Compound 137, (3-bromo-4-{[(7-methoxyquinolin-4-yl)oxy]methyl}phenyl)(imino)methyl-λ^6-sulfanone] | – | – | – | 10 to 1000 nM | 200 nM | 3 to 300 nM | 38 nM | – | – | –
COc1ccc2c(N3CCC(CCS(C)(=N)=O)CC3)ncnc2c1 (centres unmarked) [Compound 139, imino({2-[1-(7-methoxyquinazolin-4-yl)piperidin-4-yl]ethyl})methyl-λ^6-sulfanone] | – | – | – | 10 to 1000 nM | 15 nM | < 3 nM | 2.4 nM | – | – | –
COc1cccc2c(N3CCC(CCS(C)(=N)=O)CC3)ccnc12 (centres unmarked) [Compound 140, imino({2-[1-(8-methoxyquinolin-4-yl)piperidin-4-yl]ethyl})methyl-λ^6-sulfanone] | – | – | – | 10 to 1000 nM | 880 nM | 3 to 300 nM | 180 nM | – | – | –
COc1ccc2c(N3CCC(CCS(C)(=N)=O)CC3)c(C#N)cnc2c1 (centres unmarked) [Compound 143, 4-(4-{2-[imino(methyl)oxo-λ6-sulfanyl]ethyl}piperidin-1-yl)-7-methoxyquinoline-3-carbonitrile] | – | – | – | – | – | < 3 nM | 1 nM | – | – | 180 nM
COc1cc2ncc(C#N)c(N3CCC(CCS(C)(=N)=O)CC3)c2cc1OC (centres unmarked) [Compound 144, 4-(4-{2-[imino(methyl)oxo-λ6-sulfanyl]ethyl}piperidin-1-yl)-6,7-dimethoxyquinoline-3-carbonitrile] | – | – | – | – | – | < 3 nM | 0.28 nM | – | – | 19 nM
CS(=N)(=O)CCC1CCN(c2ccnc3ccccc23)CC1 (centres unmarked) [Compound 149, imino(methyl){2-[1-(quinolin-4-yl)piperidin-4-yl]ethyl}-λ^6-sulfanone] | – | – | – | – | 1400 nM | > 300 nM | 410 nM | > 1000 nM | – | –
COc1cc2ncnc(-c3ccc(CCS(C)(=N)=O)cc3)c2cc1OC (centres unmarked) [Compound 153, {2-[4-(6,7-dimethoxyquinazolin-4-yl)phenyl]ethyl}(imino)methyl-λ^6-sulfanone] | – | – | – | 10 to 1000 nM | 54 nM | 3 to 300 nM | 12 nM | – | – | –
COc1ccc2c(-c3ccc(CNS(C)(=N)=O)cc3)ccnc2c1 (centres unmarked) [Compound 162, N-{[4-(7-methoxyquinolin-4-yl)phenyl]methyl}methanesulfonoimidamide] | – | – | – | 10 to 1000 nM | 40 nM | 3 to 300 nM | 6.9 nM | – | – | –
COc1ccc2c(N3CCC(CCS(C)(=N)=O)CC3)ncnc2c1OC (centres unmarked) [Compound 165, (2-(1-(7,8-dimethoxyquinazolin-4-yl)piperidin-4-yl)ethyl)(imino)(methyl)-l6-sulfanone] | – | – | – | – | > 30000 nM | > 300 nM | 1400 nM | > 1000 nM | – | –
